This note sets out measurements from ChEMBL document CHEMBL5537187, “Discovery of N-(1-(6-Oxo-1,6-dihydropyrimidine)-pyrazole) Acetamide Derivatives as Novel Noncovalent DprE1 Inhibitors against Mycobacterium tuberculosis” (J Med Chem, 2024).

The source made the active and inactive calls. The calls are words filed in the database; no cut-off is given here.

In this test the test system is Mycolicibacterium smegmatis. Description: Antimycobacterial activity against Mycobacterium smegmatis overexpressing Mtb DprE1 assessed as inhibition of bacterial growth by resazurin dye based analysis. Format: functional, organism-based. In general terms: Resazurin is reduced to fluorescent resorufin, in cell work by metabolically active cells.

As for `CO[C@H]1/C=C/O[C@@]2(C)Oc3c(C)c(O)c4c(O)c(c(/C=N/N5CCN(C)CC5)c(O)c4c3C2=O)NC(=O)/C(C)=C\C=C\[C@H](C)[C@H](O)[C@@H](C)[C@@H](O)[C@@H](C)[C@H](OC(C)=O)[C@@H]1C` [RIFAMPIN], the outcome was Active.
